In patent US20250195521A1 (Revolution Medicines, Inc., priority 2020, published 2025):
Read-outs that look alike come from different tables or passages of the source.

Legend:
NCI-H358 (K-Ras G12C) = experiment: CellTiter-Glo cell viability assay, NCI-H358; format: cell-based, human
How it was run: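 Viability is measured as ATP-dependent luminescence (CellTiter-Glo) five days into compound treatment. Responses are normalized to vehicle (DMSO) wells and fitted by four-parameter logistic regression.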

[1] = test system: K-Ras G12C (NCI-H358 cells); experiment: Potency assay: pERK in NCI-H358 cells; format: cell-based, human; conditions: read-out: pERK EC50 (H358 KRAS G12C)
How it was run: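 Cells plated the day before were exposed for 4 h at 37° C, 5% CO2 to a 10-point, 3-fold DMSO dilution series (10 mM top stock), in duplicate. Phospho-ERK was read by AlphaLISA SureFire Ultra or by In-Cell Western with DRAQ5 DNA stain, and IC50 came from a 4-parameter sigmoidal fit.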

[2] = Homo sapiens, NCI-H358, 120 h, 5-day treatment, read-out: H358 Cell Viability assay data (K-Ras G12C, IC50)
[3] = Homo sapiens, NCI-H358 cells, 4 hours
[4] = Homo sapiens, NCI-H358, 120 h, read-out: H358 Cell Viability assay data (K-Ras G12C, IC50, uM), 5-day treatment
[5] = 5-day treatment, read-out: H358 Cell Viability assay data (K-Ras G12C, IC50)

Row | SMILES | IC50 (NCI-H358 (K-Ras G12C); [2]) | EC50 [1, 3] | other results
1 | C=CC(=O)N1CC[C@H](C(=O)N(C)[C@H](C(=O)N[C@H]2Cc3cccc(c3)-c3ccc4c(c3)c(c(-c3cccnc3[C@H](C)OC)n4CC)CC(C)(C)COC(=O)[C@@H]3CCCN(N3)C2=O)[C@@H](C)C(F)(F)F)C1 (atropisomer, axis not shown) [Compound A640] | 0.01 to 0.1 µM | < 5000 nM | 
2 | C=CC(=O)N1CC[C@H](C(=O)N(C)[C@H](C(=O)N[C@H]2Cc3cc(N)cc(c3)-c3ccc4c(c3)c(c(-c3ccccc3COC)n4CC)CC(C)(C)COC(=O)[C@@H]3CCCN(N3)C2=O)C(C)C)C1 [Compound A2] | > 10 µM | < 5000 nM | 
3 | C=CC(=O)N1CC[C@H](C(=O)N(C)[C@H](C(=O)N[C@H]2Cc3cc(O)cc(c3)-c3ccc4c(c3)c(c(-c3ccc(CC(=O)O)nc3)n4CC)CC(C)(C)COC(=O)[C@@H]3CCCN(N3)C2=O)C(C)C)C1 [Compound A21] |  |  | IC50 (NCI-H358 (K-Ras G12C); [4]): > 10 µM; EC50 ([1]; Homo sapiens, NCI-H358, 4 h): < 5000 nM
4 | C=CC(=O)N1CC[C@H](C(=O)N(C)[C@H](C(=O)N[C@H]2Cc3cc(O)cc(c3)-c3ccc4c(c3)c(c(-c3ncccc3[C@H](C)OC)n4CC)CC(C)(C)COC(=O)[C@@H]3CCCN(N3)C2=O)C(C)C)C1 [Compound A22] |  |  | IC50 (NCI-H358 (K-Ras G12C); [4]): 0.01 to 0.1 µM; EC50 ([1]; Homo sapiens, NCI-H358, 4 h): < 5000 nM
5 | C=CC(=O)N1CC[C@H](C(=O)N(C)[C@H](C(=O)N[C@H]2Cc3cc(O)cc(c3)-c3ccc4c(c3)c(c(-c3ccccc3CCOC)n4CC)CC(C)(C)COC(=O)[C@@H]3CCCN(N3)C2=O)C(C)C)C1 [Compound A24] | > 10 µM | < 5000 nM | 
6 | C=CC(=O)N1CC[C@H](C(=O)N(C)[C@H](C(=O)N[C@H]2Cc3cc(O)cc(c3)-c3ccc4c(c3)c(c(-c3ccccc3CCOC)n4C(C)(C)C#N)CC(C)(C)COC(=O)[C@@H]3CCCN(N3)C2=O)C(C)C)C1 [Compound A34] |  |  | IC50 (NCI-H358 (K-Ras G12C); [5]): 0.01 to 0.1 µM; EC50 ([1]; NCI-H358 cells, 4 hours): < 5000 nM
7 | CCn1c(-c2cnccc2COC)c2c3cc(ccc31)-c1cc(O)cc(c1)C[C@H](NC(=O)[C@H](C(C)C)N(C)C(=O)[C@@H]1CN(C(C)=O)C[C@@H]1C(F)(F)F)C(=O)N1CCC[C@H](N1)C(=O)OCC(C)(C)C2 [Compound A80] | 0.1 to 1 µM | < 5000 nM | 
8 | CC#CC(=O)N1CC[C@H](C(=O)N(C)[C@H](C(=O)N[C@H]2Cc3cc(O)cc(c3)-c3ccc4c(c3)c(c(-c3cccnc3[C@H](C)OC)n4CC)CC(C)(C)COC(=O)[C@@H]3CCCN(N3)C2=O)C(C)C)C1 [Compound A145, (2S)-2-{1-[(3S)-1-(but-2-ynoyl)pyrrolidin-3-yl]-N-methylformamido}-N-[(8S,14S,20M)-22-ethyl-4-hydroxy-21-{2-[(1S)-1-methoxyethyl]pyridin-3-yl}-18, 18-dimethyl-9,15-dioxo-16-oxa-10,22,28-triazapentacyclo [18.5.2.1^2,6.1^10,14.0^23,27]nonacosa-1 (26),2,4,6 (29),20,23 (27),24-heptaen-8-yl]-3-methylbutanamide] |  |  | IC50 (NCI-H358 (K-Ras G12C); [4]): < 0.01 µM; IC50 (NCI-H358 (K-Ras G12C); read-out: H358 Cell Viability assay data (K-Ras G12C, IC50), 5-day treatment): 0.01 to 0.1 µM; EC50 ([1]; Homo sapiens, NCI-H358, 4 h): < 5000 nM
9 | C=CC(=O)N1CC[C@H](C(=O)N(C)[C@H](C(=O)N[C@H]2C[C@H]3CN(CCCO3)c3ccc4c(c3)c(c(-c3cccnc3[C@H](C)OC)n4CC)CC(C)(C)COC(=O)[C@@H]3CCCN(N3)C2=O)C(C)C)C1 [Compound A405] | > 10 µM |  | 
10 | C=CC(=O)N1CC[C@H](C(=O)N(C)[C@H](C(=O)NC2C[C@H]3CN(CCCO3)c3ccc4c(c3)c(c(-c3cccnc3[C@H](C)OC)n4CC)CC(C)(C)COC(=O)[C@@H]3CCCN(N3)C2=O)C(C)C)C1 (some centres unmarked) [Compound A429] | > 10 µM |  | 
11 | C=CC(=O)N1CC(OCC(C(=O)N[C@H]2Cc3cc(cc(C(F)F)c3)-c3ccc4c(c3)c(c(-c3cccnc3[C@H](C)OC)n4CC)CC(C)(C)COC(=O)[C@@H]3CCCN(N3)C2=O)C(C)C)C1 (some centres unmarked) [Compound A450] | > 10 µM |  | 
12 | CCn1c(-c2cccnc2[C@H](C)OC)c2c3cc(ccc31)-c1csc(n1)C[C@H](NC(=O)[C@H](C(C)C)N(C)C(=O)N1CC3(CC(N4CCOCC4)C3)C1)C(=O)N1CCC[C@H](N1)C(=O)OCC(C)(C)C2 [Compound A486] | 0.1 to 1 µM |  | 
13 | C=CC(=O)N1CC[C@H](C(=O)N(C)[C@H](C(=O)N[C@H]2CCC(=O)N(C)Cc3ccc4c(c3)c(c(-c3cccnc3[C@H](C)OC)n4CC)CC(C)(C)COC(=O)[C@@H]3CCCN(N3)C2=O)C(C)C)C1 [Compound A500] | > 10 µM |  | 
14 | C=CC(=O)N1CC[C@H](C(=O)N(C)[C@H](C(=O)N[C@H]2Cc3cccc(c3)-c3ccc4c(c3)c(c(-c3cc(C5=CCN(C)CC5)cnc3[C@H](C)OC)n4CC)CC(C)(C)COC(=O)[C@@H]3CCCN(N3)C2=O)C(C)C)C1 [Compound A514] | 0.1 to 1 µM |  | 
15 | C=CC(=O)N1CC[C@H](C(=O)N(C)[C@H](C(=O)N[C@H]2Cc3nc(cs3)-c3ccc4c(c3)c(c(-c3cc(C5=CCN(C)CC5)cnc3[C@H](C)OC)n4CC)CC(C)(C)COC(=O)[C@@H]3CCCN(N3)C2=O)C(C)C)C1 [Compound A520] |  |  | IC50 (NCI-H358 (K-Ras G12C); [5]): < 0.01 µM
16 | C=CC(=O)N1CC[C@H](C(=O)N(C)[C@H](C(=O)N[C@H]2Cc3cccc(c3)-c3ccc4c(c3)c(c(-c3cc(CN(C)C)cnc3[C@H](C)OC)n4CC)CC(C)(C)COC(=O)[C@@H]3CCCN(N3)C2=O)C(C)C)C1 [Compound A523] |  |  | IC50 (NCI-H358 (K-Ras G12C); [5]): 0.1 to 1 µM

Second part, led by results:

Row | IC50 (NCI-H358 (K-Ras G12C); [2]) | EC50 [1, 3] | SMILES | other results
17 | < 0.01 µM | < 5000 nM | CCn1c(-c2cccnc2[C@H](C)OC)c2c3cc(ccc31)-c1csc(n1)C[C@H](NC(=O)[C@H](C(C)C)N(C)C(=O)N1CC[C@]3(CCN(C)C3=O)C1)C(=O)N1CCC[C@H](N1)C(=O)OCC(C)(C)C2 (single isomer, unassigned) [Compound A461] | 
18 | 0.1 to 1 µM | < 5000 nM | CCn1c(-c2cccnc2[C@H](C)OC)c2c3cc(ccc31)-c1cc(O)cc(c1)C[C@H](NC(=O)[C@H](C(C)C)N(C)C(=O)C1COC1)C(=O)N1CCC[C@H](N1)C(=O)OCC(C)(C)C2 [Compound A18] | 
19 | 0.01 to 0.1 µM | < 5000 nM | CCn1c(-c2cnccc2COC)c2c3cc(ccc31)-c1cc(O)cc(c1)C[C@H](NC(=O)[C@H](C(C)C)N(C)C(=O)N1CC(OC)C1)C(=O)N1CCC[C@H](N1)C(=O)OCC(C)(C)C2 [Compound A30] | 
20 | 0.1 to 1 µM | < 5000 nM | CCn1c(-c2cnccc2COC)c2c3cc(ccc31)-c1cc(O)cc(c1)C[C@H](NC(=O)[C@H](C(C)C)N(C)C(=O)CN1CCOCC1)C(=O)N1CCC[C@H](N1)C(=O)OCC(C)(C)C2 [Compound A65] | 
21 | 0.01 to 0.1 µM | < 5000 nM | CCn1c(-c2ccccc2CCOC)c2c3cc(ccc31)-c1cc(O)cc(c1)C[C@H](NC(=O)[C@H](C(C)C)N(C)C(=O)CCN)C(=O)N1CCC[C@H](N1)C(=O)OCC(C)(C)C2 [Compound A70] | 
22 | 0.01 to 0.1 µM | < 5000 nM | CCn1c(-c2cnccc2COC)c2c3cc(ccc31)-c1cc(O)cc(c1)C[C@H](NC(=O)[C@H](C(C)C)N(C)CC(F)(F)F)C(=O)N1CCC[C@H](N1)C(=O)OCC(C)(C)C2 [Compound A77] | 
23 | < 0.01 µM | < 5000 nM | CCn1c(-c2cnccc2COC)c2c3cc(ccc31)-c1cc(O)cc(c1)C[C@H](NC(=O)[C@H](C(C)C)N(C)C(=O)[C@@H]1CCCO1)C(=O)N1CCC[C@H](N1)C(=O)OCC(C)(C)C2 [Compound A91] | 
24 | 0.01 to 0.1 µM | < 5000 nM | CCn1c(-c2cccnc2[C@H](C)OC)c2c3cc(ccc31)-c1cc(O)cc(c1)C[C@H](NC(=O)[C@H](C(C)C)N(C)C(=O)[C@H]1CCN(C(=O)CN(C)C)C1)C(=O)N1CCC[C@H](N1)C(=O)OCC(C)(C)C2 [Compound A95] | 
25 | < 0.01 µM | < 5000 nM | CCn1c(-c2cccnc2[C@H](C)OC)c2c3cc(ccc31)-c1cc(O)cc(c1)C[C@H](NC(=O)[C@H](C(C)C)N(C)C(=O)C13CNCC1C3)C(=O)N1CCC[C@H](N1)C(=O)OCC(C)(C)C2 (some centres unmarked) [Compound A155] | IC50 (NCI-H358 (K-Ras G12C); [5]): 0.01 to 0.1 µM
26 | 0.01 to 0.1 µM |  | CCn1c(-c2cccnc2[C@H](C)OC)c2c3cc(ccc31)-c1csc(n1)C[C@H](NC(=O)[C@H](C(C)C)N(C)C(=O)N1CC([C@H](C)CO)C1)C(=O)N1CCC[C@H](N1)C(=O)OCC(C)(C)C2 [Compound A478] | 
27 | 0.01 to 0.1 µM |  | CCn1c(-c2cccnc2[C@H](C)OC)c2c3cc(ccc31)-c1csc(n1)[C@@H](O)[C@H](NC(=O)[C@H](C(C)C)N(C)C(=O)N1CC(N(C)C)C1)C(=O)N1CCC[C@H](N1)C(=O)OCC(C)(C)C2 [Compound A489] | 
28 | < 0.01 µM |  | C=CC(=O)N1CC[C@H](C(=O)N(C)[C@H](C(=O)N[C@H]2Cc3cccc(c3)-c3ccc4c(c3)c(c(-c3cc(C5CCN(C)CC5)cnc3[C@H](C)OC)n4CC)CC(C)(C)COC(=O)[C@@H]3CCCN(N3)C2=O)C(C)C)C1 [Compound A515] | 
29 | 0.01 to 0.1 µM |  | CCn1c(-c2cccnc2[C@H](C)OC)c2c3cc(ccc31)-c1csc(n1)C[C@H](NC(=O)[C@H](C(C)C)N(C)C(=O)N1C3CC1CN(C)C3)C(=O)N1CCC[C@H](N1)C(=O)OCC(C)(C)C2 [Compound A541] | 
30 | < 0.01 µM |  | CO[C@@H](COC1CN(C(=O)C#CC(C)(C)N(C)C)C1)C(=O)N[C@H]1Cc2cccc(c2)-c2ccc3c(c2)c(c(-c2cccnc2[C@H](C)OC)n3CC(F)(F)F)CC(C)(C)COC(=O)[C@@H]2CCCN(N2)C1=O [Compound A556] | 
31 | < 0.01 µM |  | CCn1c(-c2cccnc2[C@H](C)OC)c2c3cc(ccc31)-c1cccc(c1)C[C@H](NC(=O)[C@H](C(C)C)N1CC[C@]3(CCN(C(=O)C#C[C@]4(N(C)C)CCOC4)C3)C1=O)C(=O)N1CCC[C@H](N1)C(=O)OCC(C)(C)C2 [Compound A559] | 
